Experimental findings from patent US20260176254A1, “INHIBITORS OF PROSTATE SPECIFIC MEMBRANE ANTIGEN AND USE THEREOF” (SHANGHAI SINOTAU BIOTECH. CO., LTD, priority 2023, published 2026) are described below.

In general, IC50 refers to the point on the concentration scale where inhibition reaches its midpoint.

The target in assay [1] is T1, recombinant human PSMA (rhPSMA) (Homo sapiens, UniProt Q04609).
T1 construct: purchased Sino Biological
Description: Naaladase assay (fluorescence-based Naaladase activity inhibition). It is filed as biochemical. Conditions: rhPSMA 0.4 μg/mL, substrate N-Acetyl-Asp-Glu 40 μM, 37° C. one hour. Here is the method: Naaladase activity inhibition was determined using a fluorescence-based assay. Briefly, the solution containing the substrate N-Acetyl-Asp-Glu (Sigma-Aldrich) at 40 μM and the compound at concentrations from 0.15 nM to 1000 nM was mixed at equal volume with recombinant human PSMA (rhPSMA, Sino Biological) at 0.4 μg/mL, in assay buffer (50 mM HEPES, 100 mM NaCl, pH 7.5). The enzymatic reaction was proceeded by incubation at 37° C. for one hour and then stopped by heating at 95° C. for 5 minutes. A solution of 15 mM ortho-phthaldialdehyde (Sigma-Aldrich) was added to all vials and incubated for 10 min at ambient temperature. The reaction solutions were loaded onto a 96-well flat clear bottom black microplates (Corning) and read at excitation and emission wavelengths of 330 and 450 nm, respectively, using a microplate reader (Tecan). The data were analyzed by a one-site total binding regression algorithm of GraphPad Prism (GraphPad Software).

Assay [2] concerns LNCaP cells. Description: Cell uptake assay of 177Lu-labeled compound. It is filed as cell-based. Conditions: for Membrane (%): cell membrane fraction; for Intracellular (%): intracellular fraction. On the procedure: LNCaP (ATCC) cells were cultured in RPMI 1640 medium (Gibco) containing 10% fetal bovine serum (FBS) (Gibco), in 5% carbon dioxide (CO2), at 37.0° C. in a humidified incubator. 2×10^5 LNCaP cells/well were seeded in a 24-well plate the day before experiment. 7.4 KBq (200 nCi) of ^177Lu-labeled compound was added into each well, and then incubated in 37° C., 5% CO2 incubator for varying durations. At each time point, the supernatant, cell membrane and intracellular fractions were collected. The cell membrane fraction was recovered by incubating cells with buffer containing 50 mM glycine and 100 mM NaCl, pH 2.7 for 10 minutes at 37° C., while the intracellular fraction was recovered from cells treated with 1M NaOH. Activity of ^177Lu-labelled compound in every component was detected by gamma counter.

T1 sequence (Q04609 whole entry): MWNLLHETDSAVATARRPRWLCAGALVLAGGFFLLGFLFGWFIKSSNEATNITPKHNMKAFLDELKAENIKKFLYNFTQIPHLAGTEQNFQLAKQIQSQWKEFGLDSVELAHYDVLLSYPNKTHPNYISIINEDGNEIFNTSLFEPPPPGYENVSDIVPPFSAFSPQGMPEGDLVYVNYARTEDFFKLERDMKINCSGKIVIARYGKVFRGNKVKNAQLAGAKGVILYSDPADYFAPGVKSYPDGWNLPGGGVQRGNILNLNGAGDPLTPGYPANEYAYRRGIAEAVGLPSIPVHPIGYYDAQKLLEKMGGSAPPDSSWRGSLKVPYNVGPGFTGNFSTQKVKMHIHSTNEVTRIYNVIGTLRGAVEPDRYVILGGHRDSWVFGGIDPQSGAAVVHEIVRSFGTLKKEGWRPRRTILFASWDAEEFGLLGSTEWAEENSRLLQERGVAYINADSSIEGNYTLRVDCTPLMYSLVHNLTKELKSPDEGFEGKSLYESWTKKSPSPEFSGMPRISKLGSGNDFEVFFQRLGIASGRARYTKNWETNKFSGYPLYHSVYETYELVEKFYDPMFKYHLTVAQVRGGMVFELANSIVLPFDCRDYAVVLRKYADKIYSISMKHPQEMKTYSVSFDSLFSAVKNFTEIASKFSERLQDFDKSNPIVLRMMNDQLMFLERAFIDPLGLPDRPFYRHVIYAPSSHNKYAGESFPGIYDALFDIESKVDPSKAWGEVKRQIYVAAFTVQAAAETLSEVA

Turning to `O=C(O)CC[C@H](NC(=O)N[C@@H](CCCCNC(=O)[C@H](Cc1ccc2ccccc2c1)Nc1c(NC23CCC(CNC(=O)CN4CCN(CC(=O)O)CCN(CC(=O)O)CCN(CC(=O)O)CC4)(CC2)CC3)c(=O)c1=O)C(=O)O)C(=O)O` [E1, (((S)-1-carboxy-5-((S)-2-((3,4-dioxo-2-((4-((2-(4,7,10-tris(carboxymethyl)-1,4,7,10-tetraazacyclododecan-1-yl)acetamido)methyl)bicyclo[2.2.2]octan-1-yl)amino)cyclobut-1-en-1-yl)amino)-3-(naphthalen-2-yl)propanamido)pentyl)carbamoyl)-L-glutamic acid], the IC50 in assay [1] was 3.3 nM. The “Membrane (%)” value in assay [2] (1 hr) was 3.4%; in assay [2] (4 hr), 5.6%; in assay [2] (24 hr), 7.1%. Also, the “Intracellular (%)” value amounted to 3.0% in assay [2] (1 hr), 9.9% in assay [2] (4 hr) and 24.8% in assay [2] (24 hr).
`O=C(O)CN1CCN(CC(=O)O)CCN(CC(=O)NCC23CCC(Nc4c(N[C@@H](Cc5c6ccccc6cc6ccccc56)C(=O)NCCCC[C@H](NC(=O)N[C@@H](CNC(=O)C(=O)O)C(=O)O)C(=O)O)c(=O)c4=O)(CC2)CC3)CCN(CC(=O)O)CC1` [E3, (4S,8S,15S)-16-(anthracen-9-yl)-15-((3,4-dioxo-2-((4-((2-(4,7,10-tris(carboxymethyl)-1,4,7,10-tetraazacyclododecan-1-yl)acetamido)methyl)bicyclo[2.2.2]octan-1-yl)amino)cyclobut-1-en-1-yl)amino)-1,6,14-trioxo-2,5,7,13-tetraazahexadecane-1,4,8-tricarboxylic acid]: in assay [1], the IC50 was found to be 1.2 nM. Further, the “Membrane (%)” value in assay [2] (1 hr) amounted to 4.0%; in assay [2] (4 hr), 6.8%; in assay [2] (24 hr), 8.8%. In addition, the “Intracellular (%)” value in assay [2] (1 hr) amounted to 14.7%; in assay [2] (4 hr) it was 44.2%; in assay [2] (24 hr), 73.3%.
Consider `O=C(O)CCC[C@H](NC(=O)N[C@@H](CCCCNC(=O)[C@H](Cc1c2ccccc2cc2ccccc12)Nc1c(NC23CCC(NC(=O)CN4CCN(CC(=O)O)CCN(CC(=O)O)CCN(CC(=O)O)CC4)(CC2)CC3)c(=O)c1=O)C(=O)O)C(=O)O` [E4, (S)-2-(3-((S)-5-((S)-3-(anthracen-9-yl)-2-((3,4-dioxo-2-((4-(2-(4,7,10-tris(carboxymethyl)-1,4,7,10-tetraazacyclododecan-1-yl)acetamido)bicyclo[2.2.2]octan-1-yl)amino)cyclobut-1-en-1-yl)amino)propanamido)-1-carboxypentyl)ureido)hexanedioic acid], for which the IC50 in assay [1] is 1.4 nM. Moreover, the “Membrane (%)” value in assay [2] (1 hr) was 6.4%; in assay [2] (4 hr), 12.8%; in assay [2] (24 hr) it was 13.0%. Further, the figures for the “Intracellular (%)” value in assay [2] (1 hr), in assay [2] (4 hr) and in assay [2] (24 hr) were 7.2%, 23.0% and 57.4%, respectively.
For `O=C(O)CC[C@H](NC(=O)N[C@@H](CCCCNC(=O)[C@H](Cc1ccc2ccccc2c1)Nc1c(NC23CCC(NC(=O)CN4CCN(CC(=O)O)CCN(CC(=O)O)CCN(CC(=O)O)CC4)(CC2)CC3)c(=O)c1=O)C(=O)O)C(=O)O` [E6, (((S)-1-carboxy-5-((S)-2-((3,4-dioxo-2-((4-(2-(4,7,10-tris(carboxymethyl)-1,4,7,10-tetraazacyclododecan-1-yl)acetamido)bicyclo[2.2.2]octan-1-yl)amino)cyclobut-1-en-1-yl)amino)-3-(naphthalen-2-yl)propanamido)pentyl)carbamoyl)-L-glutamic acid], the IC50 in assay [1] is 1.5 nM. Besides, the “Membrane (%)” value in assay [2] (1 hr) is 6.3%; in assay [2] (4 hr), 10.1%; in assay [2] (24 hr) it was 11.6%. For the same compound, the results for the “Intracellular (%)” value in assay [2] (1 hr), in assay [2] (4 hr) and in assay [2] (24 hr) were 5.7%, 18.9% and 45.5%, respectively.
On to `O=C(O)CN1CCN(CC(=O)O)CCN(CC(=O)NC23CCC(Nc4c(N[C@@H](Cc5c6ccccc6cc6ccccc56)C(=O)NCCCC[C@H](NC(=O)N[C@@H](CNC(=O)C(=O)O)C(=O)O)C(=O)O)c(=O)c4=O)(CC2)CC3)CCN(CC(=O)O)CC1` [E8], for which the IC50 in assay [1] was determined as 1.6 nM. Further, the “Membrane (%)” value in assay [2] (1 hr) worked out at 4.8%; in assay [2] (4 hr) it was 12.8%; in assay [2] (24 hr), 7.3%. The results for the “Intracellular (%)” value in assay [2] (1 hr), in assay [2] (4 hr) and in assay [2] (24 hr) were 11.5%, 39.0% and 77.9%, respectively.
Consider `O=C(O)CN1CCN(CC(=O)O)CCN(Cc2nnc(C34CCC(Nc5c(N[C@@H](Cc6c7ccccc7cc7ccccc67)C(=O)NCCCC[C@H](NC(=O)N[C@@H](CNC(=O)C(=O)O)C(=O)O)C(=O)O)c(=O)c5=O)(CC3)CC4)o2)CCN(CC(=O)O)CC1` [E9], for which the IC50 in assay [1] was 1 nM. Further, the entries for the “Membrane (%)” value in assay [2] (1 hr), in assay [2] (4 hr) and in assay [2] (24 hr) were 5.0%, 9.7% and 10.1%, respectively. Moreover, the “Intracellular (%)” value was found to be 12.4% in assay [2] (1 hr), 40.4% in assay [2] (4 hr) and 72.0% in assay [2] (24 hr).
As to `O=C(O)CN1CCN(CC(=O)O)CCN(Cc2nnc([C@H]3CC[C@H](Nc4c(N[C@@H](Cc5c6ccccc6cc6ccccc56)C(=O)NCCCC[C@H](NC(=O)N[C@@H](CNC(=O)C(=O)O)C(=O)O)C(=O)O)c(=O)c4=O)CC3)o2)CCN(CC(=O)O)CC1` [E10], the IC50 in assay [1] worked out at 1.7 nM. In addition, the “Membrane (%)” value was determined as 7.1% in assay [2] (1 hr), 10.5% in assay [2] (4 hr) and 11.0% in assay [2] (24 hr). The “Intracellular (%)” value in assay [2] (1 hr) amounted to 16.9%; in assay [2] (4 hr), 50.2%; in assay [2] (24 hr), 76.7%.
As for `O=C(O)CN1CCN(CC(=O)O)CCN(CC(=O)N[C@H]2CC[C@H](Nc3c(N[C@@H](Cc4c5ccccc5cc5ccccc45)C(=O)NCCCC[C@H](NC(=O)N[C@@H](CNC(=O)C(=O)O)C(=O)O)C(=O)O)c(=O)c3=O)CC2)CCN(CC(=O)O)CC1` [E12], in assay [1], the IC50 was 0.9 nM. Besides, the “Membrane (%)” value is 11.1% in assay [2] (1 hr), 18.0% in assay [2] (4 hr) and 12.7% in assay [2] (24 hr). Also, the “Intracellular (%)” value came to 7.3% in assay [2] (1 hr), 24.3% in assay [2] (4 hr) and 41.4% in assay [2] (24 hr).
As to `O=C(O)CCC[C@H](NC(=O)N[C@@H](CCCCNC(=O)[C@H](Cc1c2ccccc2cc2ccccc12)Nc1c(Nc2ccc3c(c2)CN(C(=O)CN2CCN(CC(=O)O)CCN(CC(=O)O)CCN(CC(=O)O)CC2)CC3)c(=O)c1=O)C(=O)O)C(=O)O` [E13], in assay [1], the IC50 was 1.7 nM. Also, the “Membrane (%)” value is given as 8.3% in assay [2] (1 hr), 13.8% in assay [2] (4 hr) and 7.1% in assay [2] (24 hr). Moreover, the “Intracellular (%)” value in assay [2] (1 hr) is on record as 6.9%; in assay [2] (4 hr), 23.0%; in assay [2] (24 hr), 43.3%.
Regarding `O=C(O)CCC[C@H](NC(=O)N[C@@H](CCCCNC(=O)[C@H](Cc1c2ccccc2cc2ccccc12)Nc1c(Nc2ccc3c(c2)CCN(C(=O)CN2CCN(CC(=O)O)CCN(CC(=O)O)CCN(CC(=O)O)CC2)C3)c(=O)c1=O)C(=O)O)C(=O)O` [E14], the IC50 in assay [1] was found to be 1.7 nM. Besides, the “Membrane (%)” value is 9.7% in assay [2] (1 hr), 14.8% in assay [2] (4 hr) and 12.9% in assay [2] (24 hr). Moreover, the results for the “Intracellular (%)” value in assay [2] (1 hr), in assay [2] (4 hr) and in assay [2] (24 hr) were 7.9%, 25.1% and 49.5%, respectively.
For `O=C(O)CC[C@H](NC(=O)N[C@@H](CCCCNC(=O)[C@H](Cc1c2ccccc2cc2ccccc12)Nc1c(NC23CCC(NC(=O)CN4CCN(CC(=O)O)CCN(CC(=O)O)CCN(CC(=O)O)CC4)(CC2)CC3)c(=O)c1=O)C(=O)O)C(=O)O` [E15], the IC50 in assay [1] is 0.8 nM. Further, the “Membrane (%)” value in assay [2] (1 hr) amounted to 14.1%; in assay [2] (4 hr), 27.3%; in assay [2] (24 hr) it was 23.8%. The “Intracellular (%)” value in assay [2] (1 hr) was found to be 9.6%; in assay [2] (4 hr), 30.4%; in assay [2] (24 hr) it was 58.4%.
`O=C(O)CC[C@H](NC(=O)N[C@@H](CCCCNC(=O)[C@H](Cc1ccc2ccccc2c1)Nc1nc(O)nc(NC23CCC(NC(=O)CN4CCN(CC(=O)O)CCN(CC(=O)O)CCN(CC(=O)O)CC4)(CC2)CC3)n1)C(=O)O)C(=O)O` [E27]: the IC50 in assay [1] stood at 26.6 nM.
On to `O=C(O)CC[C@H](NC(=O)N[C@@H](CCCCNC(=O)[C@H](Cc1ccc2ccccc2c1)Nc1c(NC23CCC(c4nnc(CN5CCN(CC(=O)O)CCN(CC(=O)O)CCN(CC(=O)O)CC5)o4)(CC2)CC3)c(=O)c1=O)C(=O)O)C(=O)O` [E28], for which the IC50 in assay [1] turned out to be 2.1 nM.
